Data on six compounds can be found in US20080293712A1, “Benzo[C][2,7]Naphtyridine Derivatives, Methods of Making Thereof and Methods of Use Thereof” (WYETH, priority 2007, published 2008).

Each structure is given as a SMILES string.

What all share (type): biochemical
For assay [1], the target named is T1, PDK-1 (Homo sapiens, UniProt O15530).
T1 sequence (O15530 1-556): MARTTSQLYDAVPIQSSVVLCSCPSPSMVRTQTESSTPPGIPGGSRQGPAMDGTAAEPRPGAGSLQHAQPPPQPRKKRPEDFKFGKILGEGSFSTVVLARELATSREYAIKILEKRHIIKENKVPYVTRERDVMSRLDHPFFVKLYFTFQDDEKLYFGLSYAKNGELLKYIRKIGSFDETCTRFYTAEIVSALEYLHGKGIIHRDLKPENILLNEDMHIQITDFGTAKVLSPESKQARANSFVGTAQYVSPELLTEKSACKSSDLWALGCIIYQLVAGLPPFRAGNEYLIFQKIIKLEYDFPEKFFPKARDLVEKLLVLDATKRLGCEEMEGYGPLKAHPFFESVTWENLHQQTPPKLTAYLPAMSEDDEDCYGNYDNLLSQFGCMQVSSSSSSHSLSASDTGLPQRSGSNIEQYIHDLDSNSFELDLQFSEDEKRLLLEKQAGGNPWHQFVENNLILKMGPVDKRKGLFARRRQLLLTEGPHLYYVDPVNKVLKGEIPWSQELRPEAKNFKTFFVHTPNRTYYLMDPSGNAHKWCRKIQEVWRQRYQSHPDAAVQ
In words: PDK-1 kinase inhibition ELISA assay (phosphorylation of His6-tagged SGK1 S422D by PDK-1). The conditions noted are these: PDK-1 ELISA, Table 11; read-out: Average IC50.

Assay [2] concerns the target Akt1 (Homo sapiens, UniProt P31749). In words: Akt1 kinase inhibition, Z'-LYTE FRET assay. The conditions noted are these: 100 μM ATP. The source says: The ability of illustrative Benzo[c][2,7]naphthyridine Derivatives to inhibit PKA, Akt1, S6K in vitro can be determined using a Fluorescence Resonance Energy Transfer (FRET) assay, such as a Z′-LYTE™ Kinase Assay Platform, commercially available from Invitrogen (c.f. Rodems et al., ASSAY Drug Devel. Technol. 1:9-19 (2002) and Zhang et al., J. Biomol. Screen. 4:67-73 (1999)). Z′-Lyte™ assay is an in vitro FRET-based assay that utilizes differential sensitivity of phosphorylated and non-phosphorylated peptides to proteolytic cleavage. The peptide substrate (also available from Invitrogen for each of PKA, Akt1 and S6K) is labeled with two different fluorophores, a fluorescence donor at one end of the peptide and a fluorescence acceptor at the other end of the peptide. In the primary kinase reaction, the kinase phosphorylates the peptide substrate in the presence of ATP. In the secondary reaction, a site-specific protease recognizes and cleaves non-phosphorylated peptides, but not phosphorylated peptides. Cleavage disrupts FRET between the donor and acceptor fluorophores on the peptide, whereas uncleaved phosphorylated peptides maintain FRET. Based on a formula that uses the ratio of donor emission (at 460 nm) to acceptor emission (at […]) after excitation of the donor fluorophore at 400 nm, the extent of phosphorylation of the peptide substrates is calculated. IC50 values of illustrative Benzo[c][2,7]naphthyridine Derivatives, shown in Table 12, are calculated using LSW Data Analysis package add-in for Excel (Microsoft).

For assay [3], the target named is PKA (Homo sapiens, UniProt P17612). Kind of assay: PKA kinase inhibition, Z'-LYTE FRET assay.
From the text: Z′-Lyte™ assay is an in vitro FRET-based assay that utilizes differential sensitivity of phosphorylated and non-phosphorylated peptides to proteolytic cleavage. The peptide substrate (also available from Invitrogen for each of PKA, Akt1 and S6K) is labeled with two different fluorophores, a fluorescence donor at one end of the peptide and a fluorescence acceptor at the other end of the peptide. In the primary kinase reaction, the kinase phosphorylates the peptide substrate in the presence of ATP. In the secondary reaction, a site-specific protease recognizes and cleaves non-phosphorylated peptides, but not phosphorylated peptides. Cleavage disrupts FRET between the donor and acceptor fluorophores on the peptide, whereas uncleaved phosphorylated peptides maintain FRET. Based on a formula that uses the ratio of donor emission (at 460 nm) to acceptor emission (at 535 nM) after excitation of the donor fluorophore at 400 nm, the extent of phosphorylation of the peptide substrates is calculated.
In assay [4] the target is S6K (Homo sapiens, UniProt P23443). Kind of assay: S6K kinase inhibition, Z'-LYTE FRET assay. Particulars: 100 μM ATP. Put shortly:
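Z'-LYTE FRET format: kinase phosphorylates fluorophore-labelled peptide with ATP, then protease cleaves only non-phosphorylated peptide. Phosphorylation calculated from donor (460 nm)/acceptor (535 nm) emission ratio after 400 nm excitation; IC50 values derived.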

Sequence of S6K (P23443 whole entry): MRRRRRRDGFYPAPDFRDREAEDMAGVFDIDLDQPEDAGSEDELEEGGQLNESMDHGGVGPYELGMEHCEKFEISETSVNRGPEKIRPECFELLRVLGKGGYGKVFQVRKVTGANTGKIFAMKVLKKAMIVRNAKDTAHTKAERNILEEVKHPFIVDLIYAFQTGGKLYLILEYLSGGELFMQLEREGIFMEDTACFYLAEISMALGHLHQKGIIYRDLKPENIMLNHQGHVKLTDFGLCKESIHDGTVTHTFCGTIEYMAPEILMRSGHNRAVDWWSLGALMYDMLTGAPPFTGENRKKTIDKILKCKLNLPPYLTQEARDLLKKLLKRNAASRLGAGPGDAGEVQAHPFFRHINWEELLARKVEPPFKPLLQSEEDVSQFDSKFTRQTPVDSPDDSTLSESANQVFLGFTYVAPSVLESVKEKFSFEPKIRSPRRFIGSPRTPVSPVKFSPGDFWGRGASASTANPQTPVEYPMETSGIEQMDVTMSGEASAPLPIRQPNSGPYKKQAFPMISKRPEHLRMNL
Sequence of Akt1 (P31749 whole entry, species assumed): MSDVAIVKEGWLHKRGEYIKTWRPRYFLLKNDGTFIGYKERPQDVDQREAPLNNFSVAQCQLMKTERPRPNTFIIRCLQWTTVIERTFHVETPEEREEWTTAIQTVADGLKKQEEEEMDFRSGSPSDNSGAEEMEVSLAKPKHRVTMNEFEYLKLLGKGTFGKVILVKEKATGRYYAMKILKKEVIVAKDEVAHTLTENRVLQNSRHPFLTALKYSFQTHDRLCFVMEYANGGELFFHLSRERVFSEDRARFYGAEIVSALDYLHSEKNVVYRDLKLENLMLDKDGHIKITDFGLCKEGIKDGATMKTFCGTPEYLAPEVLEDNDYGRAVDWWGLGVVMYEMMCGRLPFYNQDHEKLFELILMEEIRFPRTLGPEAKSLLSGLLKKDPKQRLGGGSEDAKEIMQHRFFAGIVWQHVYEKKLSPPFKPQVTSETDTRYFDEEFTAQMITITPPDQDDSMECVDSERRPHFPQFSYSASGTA

As to `COc1cc2ncc3c(N)nc(-c4cncc(OC[C@@H](N)CN5CCc6ccccc6C5)c4)cc3c2cc1OC` [Ib-50, 2-(5-{[(2S)-2-amino-3-(3,4-dihydroisoquinolin-2(1H)-yl)propyl]oxy}pyridin-3-yl)-8,9-dimethoxybenzo[c]-2,7-naphthyridin-4-amine], the IC50 in assay [1] was 61 nM; in assay [2], 160 nM; in assay [3] (20 μM ATP) it was 2100 nM; in assay [3] (100 μM ATP), above 2000 nM; in assay [4] it was 220 nM.

As to `COc1cc2ncc3c(N)nc(-c4cncc(OC[C@@H](N)COCc5ccccc5)c4)cc3c2cc1OC` [Ib-51, 2-(5-{[(2S)-2-amino-3-(benzyloxy)propyl]oxy}pyridin-3-yl)-8,9-dimethoxybenzo[c]-2,7-naphthyridin-4-amine], the IC50 in assay [1] is 5 nM; in assay [2], below 160 nM; in assay [3] (20 μM ATP) it was 340 nM; in assay [3] (100 μM ATP) it was 712 nM; in assay [4] it was 60 nM.

As to `COc1cc2ncc3c(N)nc(-c4cncc(OC[C@@H](N)Cc5ccccc5Cl)c4)cc3c2cc1OC` [Ib-52, 2-(5-{[(2S)-2-amino-3-(2-chlorophenyl)propyl]oxy}pyridin-3-yl)-8,9-dimethoxybenzo[c]-2,7-naphthyridin-4-amine], the IC50 in assay [1] turned out to be 8 nM; in assay [2] it was 6.4 nM; in assay [3] (20 μM ATP), 45 nM; in assay [3] (100 μM ATP), 793 nM; in assay [4], 106 nM.

Turning to `COc1cc2ncc3c(N)nc(-c4cncc(OC[C@@H](N)Cc5ccc(O)cc5)c4)cc3c2cc1OC` [Ib-53, 4-((2S)-2-Amino-3-{[5-(4-amino-8,9-dimethoxybenzo[c]-2,7-naphthyridin-2-yl)pyridin-3-yl]oxy}propyl)phenol], the IC50 was 17 nM in assay [1]; 15 nM in assay [2]; 400 nM in assay [3] (20 μM ATP); above 2000 nM in assay [3] (100 μM ATP); 86 nM in assay [4].

With `COc1cc2ncc3c(N)nc(-c4cncc(OC[C@H]5CCCN5)c4)cc3c2cc1OC` [Ib-61, 8,9-dimethoxy-2-{5-[(2R)-pyrrolidin-2-ylmethoxy]pyridin-3-yl}benzo[c]-2,7-naphthyridin-4-amine], the 50% inhibitory concentration (IC50) in assay [1] was 43 nM; in assay [2] it was 250 nM; in assay [3] (20 μM ATP), 1500 nM; in assay [3] (100 μM ATP) it was above 2000 nM; in assay [4], 7 to 82 nM.

For the compound `COc1cc2ncc3c(N)nc(-c4cncn4C)cc3c2cc1OC` [Ib-63, 8,9-Dimethoxy-2-(1-methyl-1H-imidazol-5-yl)benzo[c]-2,7-naphthyridin-4-amine], the IC50 in assay [1] was 66 nM; in assay [2] it was 400 nM; in assay [3] (20 μM ATP), above 20000 nM; in assay [3] (100 μM ATP), above 2000 nM; in assay [4] it was 1270 nM.
